# Laboratory results as given in ChEMBL document CHEMBL1201862, “PubChem BioAssay data set” (2004).
# The source made the active and inactive calls.
# Tests used:
# [1] = cytotoxicity toward NIH3T3 fibroblasts, dose response, counter-screen, cell-based, ATP luminescence, mouse fibroblasts (AID 2010); format: functional;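 also: cells exposed to compound for about 90 hours before reading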
# [2] = molecular target: T1, Sentrin-specific protease 7 (Homo sapiens, UniProt Q9BQF6); format: functional;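 also: Luminescence-based dose-response confirmation of ultra-high-throughput screening hits, measuring inhibition of SENP7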
# T1 sequence (Q9BQF6 whole entry): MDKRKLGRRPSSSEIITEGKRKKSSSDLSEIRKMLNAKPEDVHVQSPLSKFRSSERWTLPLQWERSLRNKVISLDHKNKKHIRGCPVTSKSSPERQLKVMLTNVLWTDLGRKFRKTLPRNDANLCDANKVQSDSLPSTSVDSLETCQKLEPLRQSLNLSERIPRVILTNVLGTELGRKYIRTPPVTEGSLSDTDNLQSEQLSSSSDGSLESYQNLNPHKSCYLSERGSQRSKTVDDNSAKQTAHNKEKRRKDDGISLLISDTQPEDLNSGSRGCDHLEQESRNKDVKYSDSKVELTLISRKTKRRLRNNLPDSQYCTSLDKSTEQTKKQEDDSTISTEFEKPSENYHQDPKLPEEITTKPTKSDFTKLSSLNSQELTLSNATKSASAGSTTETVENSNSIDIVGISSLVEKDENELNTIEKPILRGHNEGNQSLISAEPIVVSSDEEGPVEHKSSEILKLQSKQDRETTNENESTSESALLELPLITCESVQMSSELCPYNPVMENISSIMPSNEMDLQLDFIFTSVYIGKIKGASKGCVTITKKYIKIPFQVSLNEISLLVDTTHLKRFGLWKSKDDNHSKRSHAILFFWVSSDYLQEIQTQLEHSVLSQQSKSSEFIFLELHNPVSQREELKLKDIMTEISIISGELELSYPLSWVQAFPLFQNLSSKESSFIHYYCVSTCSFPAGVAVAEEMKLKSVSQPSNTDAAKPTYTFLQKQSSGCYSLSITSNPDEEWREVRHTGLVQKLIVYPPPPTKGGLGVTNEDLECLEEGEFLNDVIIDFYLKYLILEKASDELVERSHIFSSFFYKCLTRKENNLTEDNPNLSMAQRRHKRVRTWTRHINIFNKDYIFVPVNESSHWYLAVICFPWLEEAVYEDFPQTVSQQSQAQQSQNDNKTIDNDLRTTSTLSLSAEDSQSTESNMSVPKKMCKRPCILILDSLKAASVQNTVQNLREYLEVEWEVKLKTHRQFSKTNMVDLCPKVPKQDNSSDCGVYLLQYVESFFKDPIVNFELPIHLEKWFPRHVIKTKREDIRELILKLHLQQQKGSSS
# [3] = cytotoxicity in HPDE-C7 cells, cell-based, fluorescence, HTS (AID 430); format: functional; settings: Homo sapiens
# INS1 = experiment: beta cell apoptosis inhibitors, cytokine rescue, dose response, luminescence, retest (AID 449756); format: functional, cell-based; settings: Rattus norvegicus, INS1;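 also: cell death triggered by IL-1 beta plus TNF-alpha plus IFN-gamma mixture; protective hits raise ATP signal compared with cytokine alone wells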
# [4] = growth suppression of PTEN-null colon cells, dose response, cell-based, HCT116 PTEN knockout (AID 1047); format: functional;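 also: HCT116 colon tumor cells with PTEN knocked out; cells exposed to compound for 60 hours before readout; potency for loss of cell viability measured by luminescence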
# [5] = inhibitors of intracellular T. cruzi replication, confirmation, NIH3T3 host cells, beta-gal luminescence (AID 2044); format: functional, cell-based;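 also: intracellular parasites grown in NIH/3T3 mouse fibroblasts as host cells; luminescent beta-galactosidase reporter signal from transgenic T. cruzi replicating inside host cells; inhibitors lower the luminescence signal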
# [6] = molecular target: T2, Mannose-6-phosphate isomerase (Homo sapiens, UniProt P34949); experiment: human PMI inhibitors, high substrate, primary screen, biochemical, fluorescence intensity, high mannose 6-phosphate (AID 1220)
# T2 sequence (P34949 whole entry): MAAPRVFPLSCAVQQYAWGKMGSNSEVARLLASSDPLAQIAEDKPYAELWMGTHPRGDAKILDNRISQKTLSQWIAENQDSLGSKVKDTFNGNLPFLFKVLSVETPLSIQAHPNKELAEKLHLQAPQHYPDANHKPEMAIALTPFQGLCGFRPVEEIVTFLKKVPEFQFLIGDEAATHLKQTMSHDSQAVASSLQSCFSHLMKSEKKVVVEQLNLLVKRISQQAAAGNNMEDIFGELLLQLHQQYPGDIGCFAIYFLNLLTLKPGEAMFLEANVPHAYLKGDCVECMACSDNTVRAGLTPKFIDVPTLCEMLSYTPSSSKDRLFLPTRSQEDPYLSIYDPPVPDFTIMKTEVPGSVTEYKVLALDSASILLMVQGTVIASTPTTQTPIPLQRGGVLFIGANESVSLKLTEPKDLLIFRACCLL
# [7] = molecular target: T3, Tyrosine-protein phosphatase non-receptor type 22 (Homo sapiens, UniProt Q9Y2R2); format: functional;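 also: confirmatory dose-response retesting of primary uHTS hits against LYP; potency is for inhibition of phosphatase activity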
# T3 sequence (Q9Y2R2 whole entry): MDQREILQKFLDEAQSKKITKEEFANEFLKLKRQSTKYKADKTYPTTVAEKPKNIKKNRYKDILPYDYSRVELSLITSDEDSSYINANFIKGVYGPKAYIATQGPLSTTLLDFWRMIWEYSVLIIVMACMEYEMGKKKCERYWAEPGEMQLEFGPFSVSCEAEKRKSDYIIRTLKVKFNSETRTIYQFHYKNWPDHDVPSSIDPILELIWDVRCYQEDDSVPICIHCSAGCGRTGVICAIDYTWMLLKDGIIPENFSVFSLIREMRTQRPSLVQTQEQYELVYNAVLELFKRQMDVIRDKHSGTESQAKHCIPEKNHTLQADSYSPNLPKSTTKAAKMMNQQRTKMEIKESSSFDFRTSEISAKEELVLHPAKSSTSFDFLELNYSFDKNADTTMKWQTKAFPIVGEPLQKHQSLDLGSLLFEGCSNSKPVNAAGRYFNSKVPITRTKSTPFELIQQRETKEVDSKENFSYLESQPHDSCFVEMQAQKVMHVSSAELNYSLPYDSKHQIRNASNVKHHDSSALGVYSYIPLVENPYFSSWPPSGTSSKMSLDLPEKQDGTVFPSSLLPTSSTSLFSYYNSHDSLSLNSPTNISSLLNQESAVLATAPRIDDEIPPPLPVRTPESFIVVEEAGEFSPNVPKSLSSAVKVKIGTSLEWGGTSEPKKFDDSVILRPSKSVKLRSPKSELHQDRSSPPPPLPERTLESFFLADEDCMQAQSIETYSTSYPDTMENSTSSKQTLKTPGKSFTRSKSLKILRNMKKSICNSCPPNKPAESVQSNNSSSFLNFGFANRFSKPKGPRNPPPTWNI
# [8] = molecular target: T4, Tyrosine-protein phosphatase non-receptor type 7 (Homo sapiens, UniProt P35236); format: functional
# T4 sequence (P35236 whole entry): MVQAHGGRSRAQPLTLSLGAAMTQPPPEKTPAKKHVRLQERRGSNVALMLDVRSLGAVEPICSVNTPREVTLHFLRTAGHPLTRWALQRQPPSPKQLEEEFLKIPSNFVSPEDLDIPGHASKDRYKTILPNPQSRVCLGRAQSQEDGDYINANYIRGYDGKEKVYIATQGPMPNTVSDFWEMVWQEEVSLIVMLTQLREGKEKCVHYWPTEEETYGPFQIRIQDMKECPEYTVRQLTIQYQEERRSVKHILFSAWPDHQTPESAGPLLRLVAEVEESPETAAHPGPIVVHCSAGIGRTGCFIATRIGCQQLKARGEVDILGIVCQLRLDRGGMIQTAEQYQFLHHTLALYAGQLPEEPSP
SMILES,EC50 [1],IC50 [2],EC50 [3],AC50 (INS1),EC50 [4],EC50 [5],IC50 [6],IC50 [7],IC50 [8]
COc1ccc(Nc2ccc3c(c2)=NC2(CCCCC2)[N+]=3[O-])cc1,9.19 µM (active),9.21 µM (active),6.89 µM (active),1.67 µM (active),2.49 µM (active),3.4 µM (active),> 50 µM (not active),,
COc1ccc(/C=C2\SC(=S)N(CCC(=O)Nc3ccc(C(=O)O)cc3)C2=O)cc1OC,,,,,,,,3.74 µM (active),3.78 µM (active)
